# Measurements: patent US20200009173A1, “TRIAZOLE-CONTAINING MACROLIDES AND OPHTHALMIC USES THEREFOR” (Tetard, Inc., priority 2017, published 2020)
# Like-named read-outs stand apart in the source and are kept apart here.
# What was measured:
# Chlamydia trachomatis = assay: MIC, Chlamydia trachomatis; assay type: cell-based; settings: N = 10
# Mycoplasma pneumoniae = assay: MIC, Mycoplasma pneumoniae (38 strains); assay type: cell-based
# Ureaplasma urealyticum = assay: MIC, Ureaplasma urealyticum; assay type: cell-based; settings: N = 10
# S. pneumoniae = assay: MICs of solithromycin and comparator drugs, S. pneumoniae (30 species); assay type: cell-based
# Text: (§1) EXAMPLE. The formulations described herein show overall higher potency against ocular pathogens than commercial standards.
# (§2) MICs (μg/ml) of Solithromycin and Comparator Drugs against Bacterial Species
# Corynebacterium spp. = assay: MIC, Corynebacterium spp.; assay type: cell-based; settings: N = 10
# [1] = tested on: Streptococcus pyogenes (a); assay: MIC, Streptococcus pyogenes (a); assay type: cell-based; settings: N = 407
# [2] = tested on: Viridans group streptococci; assay: MIC, Viridans group streptococci; assay type: cell-based; settings: N = 51
# P. Acnes = assay: MICs of solithromycin and comparator drugs against P. acnes; assay type: cell-based
# Text: EXAMPLE. The formulations described herein show overall higher potency against ocular pathogens than commercial standards. MICs (μg/ml) of Solithromycin and Comparator Drugs against P. Acnes (51 Species)
# [3] = tested on: phagocytized L. monocytogenes; assay: Activity against phagocytized L. monocytogenes; assay type: cell-based
# MSRA = assay: MICs of solithromycin and comparator drugs, MSRA (30 species); assay type: cell-based
# Text: as §1, §2
# [4] = MIC in the presence of serum; assay type: cell-based; settings: 10% serum
# [5] = speed of uptake and ultimate tissue concentration
# [6] = tested on: Haemophilus parainfluenzae; assay: MIC, Haemophilus parainfluenzae; assay type: cell-based; settings: N = 11
# TNFα = TNFα production in LPS-stimulated PMA-differentiated U937 cells (ELISA); assay type: cell-based, human
# Experimental: EXAMPLE. […] Cells. The human monocytic cell line U937 was obtained from the American Type Culture Collection (ATCC, Rockville, Md.). PBMCs from COPD patients were obtained from Brompton hospital and separated by AccuSPIN (Sigma-Aldrich). […] U937 cells were differentiated into adherent macrophage-like morphology by exposure to PMA (50 ng/ml) for 48 h in complete growth medium. Cell viability was assessed microscopically by trypan blue staining. Cell toxicity was determined by MTT assay as needed. This study was approved by the ethics committee of the Royal Brompton Hospitals, and all subjects gave written informed consent. Cytokine ELISA. TNFα and IL-8 concentrations in the supernatant of cell cultures were determined by sandwich ELISA according to the manufacturer's instructions (R&D Systems Europe, Abingdon, UK). Statistical analysis. The results were expressed as the mean±SEM. Comparisons of data in two groups were performed using the Student's t test or the Wilcoxon signed rank test. Multiple comparisons were made by one-way ANOVA with post hoc test (Dunnett's) as appropriate. The difference was considered significant at p<0.05. […] Anti-inflammatory effects of solithromycin in U937 cells.
# MSSA = assay: MICs of solithromycin and comparator drugs, MSSA (31 species); assay type: cell-based
# Text: as §1, §2
# Moraxella catarrhalis = assay: MIC, Moraxella catarrhalis; assay type: cell-based; settings: N = 21
# Chlamydophila pneumoniae = assay: MIC, Chlamydophila pneumoniae (10 strains); assay type: cell-based
# [7] = Protein binding in plasma; assay type: in vitro ADME
# Staphylococcus aureus = assay: MIC, Staphylococcus aureus; assay type: cell-based; settings: N = 201
# Neisseria gonorrhoeae = assay: MIC, Neisseria gonorrhoeae; assay type: cell-based; settings: N = 34
# Streptococcus agalactiae = assay: MIC, Streptococcus agalactiae; assay type: cell-based; settings: N = 535
# Mycobacterium avium = assay: MIC, Mycobacterium avium; assay type: cell-based; settings: N = 30
# H. influenzae = assay: MICs of solithromycin and comparator drugs, H. influenzae (30 species); assay type: cell-based
# Text: as §1, §2
# Streptococcus pyogenes = assay: MIC, Streptococcus pyogenes; assay type: cell-based
# [8] = Cutibacterium acnes, 51 species
smiles,measurement,setting,value
"CC[C@H]1OC(=O)[C@@](C)(F)C(=O)[C@H](C)[C@@H](O[C@@H]2O[C@H](C)C[C@H](N(C)C)[C@H]2O)[C@](C)(OC)C[C@@H](C)C(=O)[C@H](C)[C@H]2N(CCCCn3cc(-c4cccc(N)c4)nn3)C(=O)O[C@]12C [CEM-101, solithromycin]",MIC50,Chlamydia trachomatis; Chlamydia trachomatis,250 ng/mL
same,MIC90,Chlamydia trachomatis; Chlamydia trachomatis,250 ng/mL
same,MIC Range,Chlamydia trachomatis,125 to 500 ng/mL
same,MIC90,"Mycoplasma pneumoniae; Mycoplasma, 38 strains, read-out: MIC90",0.125 ng/mL
same,MIC50,"Mycoplasma pneumoniae; Mycoplasma, N = 38",0.032 ng/mL
same,MIC90,Mycoplasma pneumoniae; N = 38,0.125 ng/mL
same,MIC Range,Mycoplasma pneumoniae; N = 38,≤6.3e-05 to 500 ng/mL
same,MIC Range,Ureaplasma urealyticum,4 to 63 ng/mL
same,MIC50,Ureaplasma urealyticum; Ureaplasma urealyticum,8 ng/mL
same,MIC90,Ureaplasma urealyticum; Ureaplasma urealyticum,31 ng/mL
same,I (intermediate susceptibility),S. pneumoniae,0%
same,MIC Range,S. pneumoniae,≤0.001-0.25 ^ μg/ml
same,NS (not susceptible),S. pneumoniae,0%
same,S (susceptible),S. pneumoniae,100%
same,MIC50,S. pneumoniae; Streptococcus pneumoniae,2 ng/mL
same,MIC90,S. pneumoniae; Streptococcus pneumoniae,120 ng/mL
same,MIC50,Corynebacterium spp.; Corynebacterium,15 ng/mL
same,MIC90,Corynebacterium spp.; Corynebacterium,500 ng/mL
same,MIC Range,Corynebacterium spp.,≤0.008-16 ^ μg/mL
same,MIC Range,[1],≤0.03-0.5 ^ μg/mL
same,MIC50,[1]; Streptococcus pyogenes,≤ 30 ng/mL
same,MIC90,[1]; Streptococcus pyogenes,≤ 30 ng/mL
same,MIC50,[2],≤ 8 ng/mL
same,MIC90,[2],60 ng/mL
same,MIC Range,[2],≤0.008-0.12 ^ μg/mL
same,MIC Range,P. Acnes,≤2 to 250 ng/mL
same,MIC50,P. Acnes; [8],15 ng/mL
same,MIC90,P. Acnes; [8],60 ng/mL
same,potency relative to azithromycin,[3],50 fold
same,MIC50,MSRA,30 ng/mL
same,MIC90,MSRA,64000 ng/mL
same,I (intermediate susceptibility),MSRA; 30 species,0%
same,NS (not susceptible),MSRA; 30 species,30%
same,S (susceptible),MSRA; 30 species,70%
same,change in MIC in the presence of serum,[4],2 fold
same,tissue distribution relative to AZI,[5],10 fold
same,MIC50,[6]; Haemophilus parainfluenzae,2000 ng/mL
same,MIC90,[6]; Haemophilus parainfluenzae,2000 ng/mL
same,MIC Range,[6],1000 to 2000 ng/mL
same,IC50,"TNFα; Homo sapiens, U-937, LPS, PMA-differentiated U937 cells, read-out: IC50 on TNFα release",41.6 ± 1.9 µM
same,effect on TNFα production,TNFα; at 100 μM,significantly inhibited
same,I (intermediate susceptibility),MSSA,0%
same,MIC Range,MSSA,4 to 64000 ng/mL
same,NS (not susceptible),MSSA,6%
same,S (susceptible),MSSA,94%
same,MIC50,"MSSA; Staphylococcus aureus, MSSA",15 ng/mL
same,MIC90,"MSSA; Staphylococcus aureus, MSSA",30 ng/mL
same,MIC50,Moraxella catarrhalis; Moraxella catarrhalis,120 ng/mL
same,MIC90,Moraxella catarrhalis; Moraxella catarrhalis,120 ng/mL
same,MIC Range,Moraxella catarrhalis,≤8 to 500 ng/mL
same,MIC90,"Chlamydophila pneumoniae; Chlamydia pneumoniae, 10 strains, read-out: MIC90",250 ng/mL
same,MIC50,"Chlamydophila pneumoniae; Chlamydia pneumoniae, N = 10",250 ng/mL
same,MIC90,Chlamydophila pneumoniae; N = 10,250 ng/mL
same,MIC Range,Chlamydophila pneumoniae; N = 10,250 to 1000 ng/mL
same,fraction unbound,[7],0.14
same,MIC50,Staphylococcus aureus,120 ng/mL
same,MIC90,Staphylococcus aureus,> 16000 ng/mL
same,MIC Range,Neisseria gonorrhoeae,30 to 250 ng/mL
same,MIC50,Neisseria gonorrhoeae; Neisseria gonorrhoeae,60 ng/mL
same,MIC90,Neisseria gonorrhoeae; Neisseria gonorrhoeae,120 ng/mL
same,MIC Range,Streptococcus agalactiae,≤0.03-0.5 ^ μg/mL
same,MIC50,Streptococcus agalactiae; Streptococcus agalactiae,≤ 30 ng/mL
same,MIC90,Streptococcus agalactiae; Streptococcus agalactiae,≤ 30 ng/mL
same,MIC50,Mycobacterium avium; Mycobacterium avium,1000 ng/mL
same,MIC90,Mycobacterium avium; Mycobacterium avium,1000 ng/mL
same,MIC Range,Mycobacterium avium,1000 ng/mL
same,I (intermediate susceptibility),H. influenzae,0%
same,MIC Range,H. influenzae,1000 to 4000 ng/mL
same,NS (not susceptible),H. influenzae,0%
same,S (susceptible),H. influenzae,100%
same,MIC50,H. influenzae; Haemophilus influenzae,2000 ng/mL
same,MIC90,H. influenzae; Haemophilus influenzae,2000 ng/mL
same,MIC Range,Streptococcus pyogenes; N = 407 (CEM-101),≤0.03-0.5 ^ μg/mL
same,MIC50,Streptococcus pyogenes; Streptococcus pyogenes,≤ 30 ng/mL
same,MIC90,"Streptococcus pyogenes; Streptococcus pyogenes, 100 strains",30 ng/mL
same,MIC90,"Streptococcus pyogenes; Streptococcus pyogenes, N = 407 (CEM-101), N = 100 (azithromycin)",≤ 30 ng/mL
